In brackets after ≈: the same amount, converted by molar mass. Entries after “also recorded” stand apart in the source; their conditions may differ. Like-named read-outs stand apart in the source and are kept apart here.
Experiments:
Kaposi's sarcoma [1] = experiment: Example 3: HIV-negative person with KS; assay type: in vivo, human
Text: Patient, a very fragile person presented with KS. […] Other medical problems included hypertension, cardiac arrhythmia, congestive heart failure, and hypothyroidism.
Prior therapy included radiation therapy. The radiated areas included both feet and eye lids. […] Cytotoxic chemotherapy was given with combination chemotherapy consisting of bleomycin, vincristine and adriamycin.
Premedication included dexamethasone, diphenhydramine, and cimetidine.

Kaposi's sarcoma [2] = experiment: Example 4: person with KS; assay type: in vivo, human
Text: Due to very extensive disease, a representative area of tumor was monitored.

Kaposi's sarcoma [3] = experiment: Paclitaxel peak levels, AUC and relation to effect and side effects in KS patients
Description: (§1) This area is calculated using the equation: [formula] where λi is the exponent of the i-th exponential term, and Ci is the initial concentration of the i-th component of the curve. Curve fitting with this model yields the parameters Ci, C2, C3 λ1, λ2 and λ3. The half-lives (t1/2 s) are calculated from the equations t1/2 (α)=0.693/λ1, t1/2 (β)=0.693/λ2 and t1/2 (γ)=0.693/λ3. The total area under the curve (AUC0→.infin.)) is calculated using the linear trapezoidal method with extrapolation of the terminal phase to infinity (Clast /λ3), where Clast is the last measured concentration.
(§2) Typically, maintenance therapy is maintained for a minimum of 3-5 cycles.

[4] = as above; conditions: human, blood, iv
Description: as §1, §2

Kaposi's sarcoma [5] = experiment: Example 5: pilot study of ten patients; assay type: in vivo, human; conditions: 100 mg/m^2 over 3 hr every 2 weeks
Text: Seven of these ten patients had previously been treated with one or more previous regimens cytotoxic chemotherapy regimens. All were severely immunodeficient with history of opportunistic infection in six, advanced KS with numerous cutaneous KS lesions, involvement of visceral disease (which is generally fatal) in five.

AIDS-KS [6] = experiment: Phase II trial, strata 2 (no prior systemic chemotherapy); assay type: in vivo, human; conditions: 100 mg/m^2 iv every 2 weeks
Text: Strata 2 of the study consisted of 20 patients with advanced AIDS-KS who had not received any prior systemic chemotherapy. The demographic characteristics and the results of treatment are provided below (Table 4-6).

Kaposi's sarcoma [7] = conditions: […]^2 to 175 mg/m^2 over three hours, every 21 days; cited from earlier work
[8] = system: ovarian and breast cancer; conditions: cited from earlier work
bone marrow suppression [9] = conditions: human, in vivo
bone marrow suppression [10] = experiment: G-CSF use in the clinical trial patients
[11] = system: AIDS-KS spindle cell lines, KS Y-1 P105; experiment: Cell proliferation assay (cell counting, day 5 or 6); assay type: cell-based
Description: FIG. 1. […] At that time surviving cells were assayed by cell counting.
AIDS-KS spindle cell lines were seeded at a density of 1.0×10^4 cells/well in a 24-well plate in KS medium. […] The cell counts were performed on day 5 or 6 using a Coulter Particulate Counter (Hialeah, Fla.).

AIDS-KS [12] = system: AIDS-KS
Kaposi's sarcoma [13] = experiment: Clinical results with paclitaxel in KS, overall
Description: The mode or route of administration can be parenteral: e.g., intravenous; intraperitoneal; subcutaneous; oral; or topical for cutaneous tumors.
All patients had advanced KS defined by more than 25 cutaneous lesions, or presence of visceral disease, or lymphedema. Other eligibility criteria included adequate hepatic, renal, and bone marrow function defined as a bilirubin<2.0 mg/dl, GOT<x upper limit of normal, creatinine<2.1 mg/dl, granulocytes>1000/mm^3, and platelets>75,000/mm^3. Patients could not have had prior therapy for their KS within the last 2 weeks. The dosage and schedule was 100 mg/m^2 intravenously every 2 weeks.

KS Y-1 cells = experiment: In vivo KS tumor model in nude mice; parameters: species or system Balbc/nu mouse; conditions: 10 mg/kg intraperitoneally, days 1, 5 and 9; measured day 14 and 21
Description: FIG. 2. […] Tumor size was measured on days 14 and 21.
KS cell lines that propagate in the immunodeficient mouse were treated with paclitaxel. 1.0×10^7 cells were implanted subcutaneously in each Balbc/nu (Charles River) mouse.

[14] = of patients with no G-CSF prior to paclitaxel
[15] = 75 mg/m^2 every two weeks, three hour infusion
[16] = 33 evaluable, 100 mg/m^2 iv every 2 weeks

## bleomycin
Kaposi's sarcoma [1]; combination chemotherapy of bleomycin, vincristine and adriamycin
  pneumonitis: pneumonitis with bilateral diffuse infiltration

## CC(=O)O[C@H]1C(=O)[C@@]2(C)[C@H]([C@H](OC(=O)c3ccccc3)[C@]3(O)C[C@H](OC(=O)[C@H](O)[C@@H](NC(=O)c4ccccc4)c4ccccc4)C(C)=C1C3(C)C)[C@]1(OC(C)=O)CO[C@@H]1C[C@@H]2O [paclitaxel]
Kaposi's sarcoma [2]; 35 mg/m^2 every 2 weeks
  KS lesions three months after initiation of the lower dose: completely flat (Clinical Complete Remission)
  tolerability: well tolerated, and their hair grew back while on therapy
Kaposi's sarcoma [2]; 75 mg/m^2
  hair loss: severe hair loss
  response to the first dose: rapid response
Kaposi's sarcoma [2]; after single dose of 75 mg/m^2, 32 lesions prior to paclitaxel
  lesion count on the left forearm: 12 lesions
Kaposi's sarcoma [2]; after single dose of 75 mg/m^2, all 32 raised prior to therapy
  raised lesions on the left forearm: two
Kaposi's sarcoma [3]; 50-100 mg/m^2, three hour bolus, would be expected
  length of time peak levels are achieved: less than 15 hours
Kaposi's sarcoma [3]; AUC 1-4 μM/hour, three hour bolus of 50-100 mg/m^2 every 14 days
  myelosuppression: not observed
Kaposi's sarcoma [3]; peak levels maintained at 15 hours or less
  unwanted hematological and non-hematological side effects: absent
Kaposi's sarcoma [3]; threshold level 0.1-1 μM for shorter periods, AUC 1-4 μM/hour
  neutropenia and other side effects: reduce neutropenia and other side effects
[4]
  Cmax: 100 to 1000 nM
Kaposi's sarcoma [5]
  patients with partial or complete response: five of the ten
  responses in patients who had previously failed chemotherapy: Responses were observed
  responses in patients with otherwise fatal pulmonary disease: Responses were also observed
  tolerability: well tolerated
  tumor associated edema: resolution of tumor associated edema was observed
AIDS-KS [6]
  Cycles to response, range: 3-9 cycles
  Median cycles to response: 3 cycles
AIDS-KS [6]; 19 evaluable
  Complete response (count): 1
  Complete response (percent): 5%
  Minimal response/stable disease (count): 6
  Minimal response/stable disease (percent): 32%
  Partial response (count): 12
  Partial response (percent): 63%
  Progression (count): 0
AIDS-KS [6]; n = 20
  Anemia, Grade 2 (count): 6
  Anemia, Grade 2 (percent): 30%
  Anemia, Grade 3 (count): 0
  Anemia, Grade 4 (count): 0
  Diarrhea, Grade 3: 0
  Diarrhea, Grade 4: 0
  Fevers, Grade 3: 1
  Fevers, Grade 4: 0
  Myalgia, Grade 3: 0
  Nausea/Vomiting, Grade 1/2: 8
  Neuropathy, Grade 3: 0
  Neuropathy, Grade 4: 0
  Neutropenia, Grade 2 (count): 4
  Neutropenia, Grade 2 (percent): 20%
  Neutropenia, Grade 3 (count): 2
  Neutropenia, Grade 3 (percent): 10%
  Neutropenia, Grade 4 (count): 3
  Neutropenia, Grade 4 (percent): 15%
  Rash ± Pruritus, Grade 1/2: 9
  Rash ± Pruritus, Grade 3: 0
  Thrombocytopenia, Grade 2 (count): 0
  Thrombocytopenia, Grade 3 (count): 0
  Thrombocytopenia, Grade 4 (count): 0
Kaposi's sarcoma [7]
  myelosuppression: increased incidents of myelosuppression
[8]; 3-96 hour infusion, every 3-4 weeks
  dose generally required to obtain responses: 175-200 mg/m^2
[8]; Wiernak, et al.
  threshold peak level necessary for pharmaceutical effect: 0.1 µM
Bone marrow suppression [9]
  Any G-CSF use (percent): 69%
  Never required G-CSF (percent): 48%
  patients who did not require G-CSF: approximately 50%
Bone marrow suppression [10]; n = 43
  Any G-CSF use (fraction): 30/43
Bone marrow suppression [10]; [14]
  Never required G-CSF (fraction): 13/27
  Required G-CSF after start of paclitaxel therapy (fraction): 14/27
Bone marrow suppression [10]; patients who did not require G-CSF
  bone marrow suppression (including neutropenia): not observed
[11]; P1(0.5), KS Y-1 P105, treated day 1 and 3, counted day 5 or 6
  IC50: 2 to 3 ng/mL (≈ 2.34 to 3.51 nM)
[11]; in vitro
  sensitivity of KS cells to paclitaxel in vitro: as sensitive to paclitaxel as human ovarian cell lines; also recorded: unusual sensitivity
Kaposi's sarcoma [1]; 35 mg/m^2, after relapse
  disease status after one cycle: stable
Kaposi's sarcoma [1]; 75 mg/m^2 every two weeks
  number of doses to complete tumor resolution: five
  period to complete tumor resolution: eight
Kaposi's sarcoma [1]; [15]
  response: remarkable response with resolution of KS, oozing, foul smell and edema
  toxicities experienced: skin itching and moderate hair loss
Kaposi's sarcoma [1]; 75 mg/m^2 every two weeks, three hour infusion, no G-CSF
  bone marrow suppression and neutropenia: lack of bone marrow suppression and accompanying neutropenia
Kaposi's sarcoma [1]; after 75 mg/m^2 every two weeks
  biopsy of the area of skin tumor: lack of KS pathologically
Kaposi's sarcoma [1]; paclitaxel alone and in combination with liposomally encapsulated doxorubicin for five months
  remission after the last combination chemotherapy treatment: eight
AIDS-KS [12]; 100 mg/m^2 iv every 2 weeks
  Cycles to response, range: 3-9 cycles
  Median cycles to response: 5 cycles
  median duration of response: ≥ 5 months
AIDS-KS [12]; [16]
  Complete response (count): 0
  Minimal response/stable disease (count): 12
  Minimal response/stable disease (percent): 34%
  Partial response (count): 23
  Partial response (percent): 66%
  Progression (count): 0
AIDS-KS [12]; not reached
  Median Survival: > 6 months
AIDS-KS [12]; preliminary results
  activity in patients with prior systemic chemotherapy: confirmed
Kaposi's sarcoma [13]; 100 mg/m^2 every 2 weeks
  effectiveness in KS versus other tumors: more effective therapeutically to KS compared to any other tumor studied thus far in the clinic
  tolerability: extremely well tolerated
Kaposi's sarcoma [13]; 35-100 mg/m^2 every 10-16 days
  median duration of response: greater than 20 weeks
  median time to achieve partial response: 6-10 weeks
  median time to achieve partial response (cycles): 3-5 cycles
Kaposi's sarcoma [13]; aside from mild to moderate hair loss and occasional other mild toxicities
  side effects: the lack of side effects is extraordinary
Kaposi's sarcoma [13]; compared to all previously studied drugs and combinations
  duration of response as reflected by the median number of cycles tolerated, versus all previously studied drugs: two fold longer
Kaposi's sarcoma [13]; up to
  duration of response, range: up to 60 weeks
KS Y-1 cells
  tumor growth: markedly inhibited
